# Measurements published in patent US20100041089A1, “IMPROVED METHOD FOR DETECTING CHEMICAL […]” (priority 2006, published 2010).
# Tested on: yeast genes (expressed mRNA)
# Test: DNA chip measurement of expressed mRNA of yeast genes after culture with a toxic chemical substance
# Type: cell-based, Saccharomyces cerevisiae S288C
# Summary of the method: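 Expression is given as treated/untreated fluorescence ratio on a whole-genome yeast DNA chip, a ratio of two or more being significant. Log-phase S288C cultures in YPD at 25 °C received the chemical for 2 h at a dose that slows growth without killing. mRNA was reverse-transcribed with Cy3- or Cy5-dUTP.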
smiles,measurement,setting,value
"C=CC=O [(14), Acrolein]",The level of expressed mRNA in the presence of chemical substance/The level of expressed mRNA in the absence of chemical substance,"yeast gene YKL071W, cultured two hours with substance",21.9
same,The level of expressed mRNA in the presence of chemical substance/The level of expressed mRNA in the absence of chemical substance,"yeast gene YKL086W, cultured two hours with substance",2.9
same,The level of expressed mRNA in the presence of chemical substance/The level of expressed mRNA in the absence of chemical substance,"yeast gene YKL151C, cultured two hours with substance",1.3
same,The level of expressed mRNA in the presence of chemical substance/The level of expressed mRNA in the absence of chemical substance,"yeast gene YKL153W, cultured two hours with substance",1.1
same,The level of expressed mRNA in the presence of chemical substance/The level of expressed mRNA in the absence of chemical substance,"yeast gene YKL195W, cultured two hours with substance",1.6
same,The level of expressed mRNA in the presence of chemical substance/The level of expressed mRNA in the absence of chemical substance,yeast gene YKL198C,6.6
same,The level of expressed mRNA in the presence of chemical substance/The level of expressed mRNA in the absence of chemical substance,"yeast gene YKR049C, cultured two hours with substance",2.1
same,The level of expressed mRNA in the presence of chemical substance/The level of expressed mRNA in the absence of chemical substance,yeast gene YKR076W,14.7
same,The level of expressed mRNA in the presence of chemical substance/The level of expressed mRNA in the absence of chemical substance,"yeast gene YKR091W, cultured two hours with substance",1.9
same,The level of expressed mRNA in the presence of chemical substance/The level of expressed mRNA in the absence of chemical substance,"yeast gene YKR097W, cultured for two hours with substance",2.1
same,The level of expressed mRNA in the presence of chemical substance/The level of expressed mRNA in the absence of chemical substance,"yeast gene YLL056C, cultured two hours with substance",11.0
same,The level of expressed mRNA in the presence of chemical substance/The level of expressed mRNA in the absence of chemical substance,yeast gene YLL060C (detoxification protein gene),10.6
same,The level of expressed mRNA in the presence of chemical substance/The level of expressed mRNA in the absence of chemical substance,yeast gene YLL060C (stress protein genes),10.6
same,The level of expressed mRNA in the presence of chemical substance/The level of expressed mRNA in the absence of chemical substance,"yeast gene YLR031W, cultured two hours with substance",1.5
same,The level of expressed mRNA in the presence of chemical substance/The level of expressed mRNA in the absence of chemical substance,"yeast gene YLR054C, cultured two hours with substance",1.1
same,The level of expressed mRNA in the presence of chemical substance/The level of expressed mRNA in the absence of chemical substance,"yeast gene YLR149C, cultured two hours with substance",1.2
same,The level of expressed mRNA in the presence of chemical substance/The level of expressed mRNA in the absence of chemical substance,"yeast gene YLR152C, cultured two hours with substance",1.2
same,The level of expressed mRNA in the presence of chemical substance/The level of expressed mRNA in the absence of chemical substance,"yeast gene YLR194C, cultured two hours with substance",1.2
same,The level of expressed mRNA in the presence of chemical substance/The level of expressed mRNA in the absence of chemical substance,"yeast gene YLR205C, cultured two hours with substance",2.4
same,The level of expressed mRNA in the presence of chemical substance/The level of expressed mRNA in the absence of chemical substance,"yeast gene YLR280C, cultured two hours with substance",0.5
same,The level of expressed mRNA in the presence of chemical substance/The level of expressed mRNA in the absence of chemical substance,"yeast gene YLR324W, cultured two hours with substance",1.4
same,The level of expressed mRNA in the presence of chemical substance/The level of expressed mRNA in the absence of chemical substance,"yeast gene YLR350W, cultured two hours with substance",2.8
same,The level of expressed mRNA in the presence of chemical substance/The level of expressed mRNA in the absence of chemical substance,"yeast gene YLR387C, cultured two hours with substance",1.7
same,The level of expressed mRNA in the presence of chemical substance/The level of expressed mRNA in the absence of chemical substance,"yeast gene YLR408C, cultured two hours with the substance",2.1
same,The level of expressed mRNA in the presence of chemical substance/The level of expressed mRNA in the absence of chemical substance,"yeast gene YLR460C, cultured two hours with substance",3.5
same,The level of expressed mRNA in the presence of chemical substance/The level of expressed mRNA in the absence of chemical substance,"yeast gene YML054C, cultured for two hours with substance",2.1
same,The level of expressed mRNA in the presence of chemical substance/The level of expressed mRNA in the absence of chemical substance,"yeast gene YML087C, cultured for two hours with substance",2.1
same,The level of expressed mRNA in the presence of chemical substance/The level of expressed mRNA in the absence of chemical substance,"yeast gene YML117W, cultured two hours with substance",0.8
same,The level of expressed mRNA in the presence of chemical substance/The level of expressed mRNA in the absence of chemical substance,"yeast gene YMR009W, cultured two hours with substance",1.9
same,The level of expressed mRNA in the presence of chemical substance/The level of expressed mRNA in the absence of chemical substance,"yeast gene YMR067C, cultured two hours with substance",1.5
same,The level of expressed mRNA in the presence of chemical substance/The level of expressed mRNA in the absence of chemical substance,"yeast gene YMR090W, cultured two hours with substance",6.5
same,The level of expressed mRNA in the presence of chemical substance/The level of expressed mRNA in the absence of chemical substance,"yeast gene YMR095C, cultured two hours with substance",2.2
same,The level of expressed mRNA in the presence of chemical substance/The level of expressed mRNA in the absence of chemical substance,"yeast gene YMR096W, DNA repair protein genes, cultured two hours with substance",4.7
same,The level of expressed mRNA in the presence of chemical substance/The level of expressed mRNA in the absence of chemical substance,"yeast gene YMR097C, cultured two hours with substance",2.1
same,The level of expressed mRNA in the presence of chemical substance/The level of expressed mRNA in the absence of chemical substance,"yeast gene YMR102C, cultured two hours with substance",0.7
same,The level of expressed mRNA in the presence of chemical substance/The level of expressed mRNA in the absence of chemical substance,"yeast gene YMR107W, cultured two hours with substance",8.1
same,The level of expressed mRNA in the presence of chemical substance/The level of expressed mRNA in the absence of chemical substance,"yeast gene YMR140W, cultured two hours with substance",1.2
same,The level of expressed mRNA in the presence of chemical substance/The level of expressed mRNA in the absence of chemical substance,"yeast gene YMR180C, cultured two hours with substance",1.7
same,The level of expressed mRNA in the presence of chemical substance/The level of expressed mRNA in the absence of chemical substance,"yeast gene YMR184W, cultured two hours with substance",1.5
same,The level of expressed mRNA in the presence of chemical substance/The level of expressed mRNA in the absence of chemical substance,"yeast gene YMR191W, cultured two hours with substance",1.5
same,The level of expressed mRNA in the presence of chemical substance/The level of expressed mRNA in the absence of chemical substance,"yeast gene YMR195W, cultured two hours with substance",1.3
same,The level of expressed mRNA in the presence of chemical substance/The level of expressed mRNA in the absence of chemical substance,"yeast gene YMR295C, cultured two hours with substance",1.3
